ChEMBL document CHEMBL1201862, “PubChem BioAssay data set” (2004)
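Cells were grown in 96-well plates and exposed to each compound for 48 hours at five concentrations; endpoints were interpolated linearly between bracketing concentrations, or set to the highest concentration if not reached. Here, GI50 denotes the concentration required for 50% inhibition of growth.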 Activity calls are given as the source filed them. Cut-off read from the data, not from the text of the source: active = GI50 up to about 1.1 µM and inactive = higher.

How the values were obtained:
Assay in all cases: DTP human tumour cell line panel, 48 h
PC-3 = test system: PC-3
CAKI-1 = test system: CAKI-1
786-0 = test system: 786-0
SK-MEL-5 = test system: SK-MEL-5
HOP-62 = test system: HOP-62
SW-620 = test system: SW-620
MDA-MB-435 = test system: MDA-MB-435
A498 = test system: A498
HT-29 = test system: HT-29
SF-539 = test system: SF-539
UACC-62 = test system: UACC-62
HL-60 = test system: HL-60
COLO 205 = test system: COLO 205
RXF 393 = test system: RXF 393
MOLT-4 = test system: MOLT-4
ACHN = test system: ACHN
Malme-3M = test system: Malme-3M
BT-549 = test system: BT-549

Compound | GI50 (PC-3) | GI50 (CAKI-1) | GI50 (786-0) | GI50 (SK-MEL-5) | GI50 (HOP-62) | GI50 (SW-620) | GI50 (MDA-MB-435) | GI50 (A498) | GI50 (HT-29) | GI50 (SF-539) | GI50 (UACC-62) | GI50 (HL-60) | GI50 (COLO 205) | GI50 (RXF 393) | GI50 (MOLT-4) | GI50 (ACHN) | GI50 (Malme-3M) | GI50 (BT-549)
CCCCCc1c(Cl)nc(Cl)nc1Cl | 8.99 µM (inactive) | 2.88 µM (inactive) | 3.67 µM (inactive) | 5.81 µM (inactive) | 22.6 µM (inactive) | 3.63 µM (inactive) | 2.76 µM (inactive) | 20.1 µM (inactive) | 3.59 µM (inactive) | 16 µM (inactive) | 15.3 µM (inactive) | 2.42 µM (inactive) | 7.85 µM (inactive) | 8.41 µM (inactive) | 0.303 µM (active) | 21 µM (inactive) | 2.59 µM (inactive) | 
COC[C@@H](/N=C/c1ccc([N+](=O)[O-])cc1)C(C)C | > 100 µM (inactive) | > 100 µM (inactive) | > 100 µM (inactive) | > 10 µM (inactive) |  | > 100 µM (inactive) | > 100 µM (inactive) |  | > 100 µM (inactive) |  | > 100 µM (inactive) |  |  | > 100 µM (inactive) | 42.2 µM (inactive) | > 100 µM (inactive) | > 100 µM (inactive) | 
[O-][N+]1=C(c2ccccc2)/C(=C2/C(c3ccccc3)=[N+]([O-])c3ccccc32)Cc2ccccc21 | 12.9 µM (inactive) | 22 µM (inactive) | 15.3 µM (inactive) | 17.6 µM (inactive) | 32.4 µM (inactive) | 22.4 µM (inactive) | 20.2 µM (inactive) | 5.52 µM (inactive) | 19.4 µM (inactive) | 24.2 µM (inactive) | 14.1 µM (inactive) | 40.1 µM (inactive) | 17.3 µM (inactive) | 33.1 µM (inactive) | 22.8 µM (inactive) | 20.9 µM (inactive) | 21.3 µM (inactive) | 
Cc1ccc(NC2=CC(=O)C(NO)c3ccccc32)cc1 (configuration not stated) |  | 2.5 µM (inactive) | 5.16 µM (inactive) | 1.49 µM (inactive) | 3.39 µM (inactive) | 3.24 µM (inactive) | 1.89 µM (inactive) | 16.3 µM (inactive) | 4.35 µM (inactive) | 3.01 µM (inactive) | 1.51 µM (inactive) | 2 µM (inactive) | 2.81 µM (inactive) | 2.62 µM (inactive) | 2.74 µM (inactive) | 2.84 µM (inactive) |  | 3.66 µM (inactive)
CC(C)c1c(O[Si](C(C)C)(C(C)C)C(C)C)cc2c(c1O)CC[C@H]1C(C)(C)CCC[C@]21C | > 100 µM (inactive) | > 100 µM (inactive) | > 100 µM (inactive) | > 100 µM (inactive) | > 100 µM (inactive) | > 100 µM (inactive) | > 100 µM (inactive) | > 100 µM (inactive) | > 100 µM (inactive) | > 100 µM (inactive) | > 100 µM (inactive) | 24.6 µM (inactive) | > 100 µM (inactive) | > 100 µM (inactive) | 43.9 µM (inactive) | > 100 µM (inactive) | > 100 µM (inactive) | 
CCOC(=O)C(NC(=O)CC)(Nc1ccc(S(=O)(=O)Nc2ncccn2)cc1)C(F)(F)F (configuration not stated) | > 100 µM (inactive) | > 100 µM (inactive) | > 100 µM (inactive) | > 100 µM (inactive) | > 100 µM (inactive) | > 100 µM (inactive) | > 100 µM (inactive) |  | > 100 µM (inactive) | > 100 µM (inactive) | > 100 µM (inactive) | > 100 µM (inactive) | > 100 µM (inactive) | > 100 µM (inactive) | > 100 µM (inactive) | > 100 µM (inactive) | > 100 µM (inactive) | 
COc1cc(OC(C)=O)cc2c(OC(C)=O)ccc(OC(C)=O)c12 |  | > 100 µM (inactive) | > 100 µM (inactive) | > 100 µM (inactive) | > 100 µM (inactive) | > 100 µM (inactive) |  | > 100 µM (inactive) | > 100 µM (inactive) |  | > 100 µM (inactive) | 43.6 µM (inactive) |  | > 100 µM (inactive) | > 100 µM (inactive) | > 100 µM (inactive) |  | 
